According to patent US20110257208A1, “COMPOUNDS USEFUL AS FAAH MODULATORS AND USES THEREOF” (priority 2008, published 2011):

Molecular target: T1, hFAAH (Homo sapiens, UniProt O00519)
T1 construct: expressed in transfected cells; host or cells: HEK293-TRex (Invitrogen) stably transfected with hFAAH in the pcDNA5-Tet-off vector, or T84 human colon epithelial cells (endogenous hFAAH); used as a microsomal preparation
T1 sequence (O00519 1-579): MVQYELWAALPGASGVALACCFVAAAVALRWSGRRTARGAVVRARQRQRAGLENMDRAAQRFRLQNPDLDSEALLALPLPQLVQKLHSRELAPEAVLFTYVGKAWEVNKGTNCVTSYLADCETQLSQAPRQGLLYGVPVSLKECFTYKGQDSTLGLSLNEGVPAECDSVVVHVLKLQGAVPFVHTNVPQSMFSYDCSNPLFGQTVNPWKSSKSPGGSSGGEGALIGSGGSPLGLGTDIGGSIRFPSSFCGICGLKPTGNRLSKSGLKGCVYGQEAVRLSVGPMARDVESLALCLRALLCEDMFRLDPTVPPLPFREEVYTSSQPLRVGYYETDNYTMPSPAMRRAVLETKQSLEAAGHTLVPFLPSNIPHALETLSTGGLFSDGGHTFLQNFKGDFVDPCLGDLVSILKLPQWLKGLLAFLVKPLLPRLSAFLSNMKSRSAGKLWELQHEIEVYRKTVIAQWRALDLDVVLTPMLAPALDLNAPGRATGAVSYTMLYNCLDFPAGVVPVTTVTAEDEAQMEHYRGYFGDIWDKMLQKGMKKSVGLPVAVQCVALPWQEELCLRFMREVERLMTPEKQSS
Experiment: Fluorimetric assay with hFAAH microsomes (enzymatic, fluorescence based)
Type: biochemical
Conditions: compound at 1 uM, AA-AMC substrate
Protocol: Human cell line T84 (human colon epithelial cells), which expresses endogenous hFAAH, or HEK293-TRex cells (Invitrogen) stably transfected with hFAAH in the pcDNA5-Tet-off vector are cultured in medium containing DMEM, 10% FBS penicillin/streptomycin, glutamax, 200 μg/ml hygromycin and 0.5 μg/ml blasticidin. Cell collection is done 24 h after induction with doxycycline by first washing the cells with cold PBS and then incubating them with Versene before centrifugation. Cell pellets are then stored at −80° C. until needed. For homogenization, the cell pellets are thawed on ice […] and resuspended in homogenization buffer (50 mM HEPES (pH 7.4), 1 mM EDTA, 1 μM Pepstatin A, 100 μM Leupeptin, 0.1 mg/mL aprotinin). Cell suspensions are then homogenized on ice using the Polytron 1200 C at setting 6 for three 30-second intervals with 30-second rests. The suspension is centrifuged at 1000 g for 10 minutes at 4° C. and the supernatant is collected and further centrifuged at 24000 rpm for 30 minutes at 4° C. using an ultracentrifuge. Pellets are resuspended by adding in cold microsomal buffer (50 mM HEPES (pH 7.4) and 1 mM EDTA) and sheared through a 23-gauge needle five times, keeping the suspension on ice. Protein concentrations are determined using the BCA assay and aliquoted preparations are stored at −80° C. until needed.
Compound potency against hFAAH is determined using an enzymatic assay with a fluorescence readout. Briefly, experiments were carried out in a 96-well plate format (Corning Costar, # 3370) with a total well volume of 160 μL with components added in the following order: assay buffer (50 mM HEPES (pH 7.4), 1 mM EDTA, 1.4 mg/mL BSA), compound solutions (7 different concentrations per compound in duplicate), microsomal enzyme preparation (10 μg per well) and substrate [AA-AMC (arachadonyl 7-amino 4-methyl coumarin amide), 2 μM]. After a brief shaking, a kinetic read of the plate is obtained using a Tecan Safire II in kinetic mode for 275 cycles with excitation and emission wavelengths of 355 and 460 nm, respectively. Raw data is then processed and analyzed using Assay Explorer and GraphPad Prism.
The following compounds have been or can be prepared according to the methods of the invention. An enzymatic (fluorescence based) assay is performed as described above. In Table 1, activity of each compound is expressed as follows: • ++++ % Inhibition >75% • +++ % Inhibition >50% • ++ % Inhibition >25% • + % Inhibition <25%

Row | SMILES | inhibition at 1 µM [%]
1 | CCC(C)N1Cc2ncnc(Nc3cnc4ccccc4c3)c2C1 (centres unmarked) [Compound 35, (6-sec-Butyl-6,7-dihydro-5H-pyrrolo[3,4-d]pyrimidin-4-yl)-quinolin-3-yl-amine] | < 25
2 | CCc1nc(C)c(CN2Cc3ncnc(Nc4cnc5ccccc5c4)c3C2)s1 [Compound 97, [6-(2-Ethyl-4-methyl-thiazol-5-ylmethyl)-6,7-dihydro-5H-pyrrolo[3,4-d]pyrimidin-4-yl]-quinolin-3-yl-amine] | > 75
3 | O=S(=O)(c1ccc(F)cc1F)N1Cc2ncnc(Nc3cnc4ccccc4c3)c2C1 [Compound 58, [6-(2,4-Difluoro-benzenesulfonyl)-6,7-dihydro-5H-pyrrolo[3,4-d]pyrimidin-4-yl]-quinolin-3-yl-amine] | > 25
4 | FC(F)(F)c1ccccc1CN1Cc2ncnc(Nc3cnc4ccccc4c3)c2C1 [Compound 95, Quinolin-3-yl-[6-(2-trifluoromethyl-benzyl)-6,7-dihydro-5H-pyrrolo[3,4-d]pyrimidin-4-yl]-amine] | > 75
5 | CCN1Cc2ncnc(Nc3cnc4ccccc4c3)c2C1 [Compound 3, (6-Ethyl-6,7-dihydro-5H-pyrrolo[3,4-d]pyrimidin-4-yl)-quinolin-3-yl-amine] | < 25
6 | COC(=O)c1ccc(S(=O)(=O)N2Cc3ncnc(Nc4cnc5ccccc5c4)c3C2)o1 [Compound 68, 5-[4-(Quinolin-3-ylamino)-5,7-dihydro-pyrrolo[3,4-d]pyrimidine-6-sulfonyl]-furan-2-carboxylic acid methyl ester] | > 75
7 | COC(=O)c1cc(S(=O)(=O)N2Cc3ncnc(Nc4cnc5ccccc5c4)c3C2)oc1C [Compound 62, 2-Methyl-5-[4-(quinolin-3-ylamino)-5,7-dihydro-pyrrolo[3,4-d]pyrimidine-6-sulfonyl]-furan-3-carboxylic acid methyl ester] | > 25
8 | Fc1ccccc1CN1Cc2ncnc(Nc3cnc4ccccc4c3)c2C1 [Compound 80, [6-(2-Fluoro-benzyl)-6,7-dihydro-5H-pyrrolo[3,4-d]pyrimidin-4-yl]-quinolin-3-yl-amine] | > 75
9 | O=C(NC1CCCCC1)N1Cc2ncnc(Nc3cnc4ccccc4c3)c2C1 [Compound 47, 4-(Quinolin-3-ylamino)-5,7-dihydro-pyrrolo[3,4-d]pyrimidine-6-carboxylic acid cyclohexylamide] | < 25
10 | FC(F)(F)Oc1cccc(CN2Cc3ncnc(Nc4cnc5ccccc5c4)c3C2)c1 [Compound 104, Quinolin-3-yl-[6-(3-trifluoromethoxy-benzyl)-6,7-dihydro-5H-pyrrolo[3,4-d]pyrimidin-4-yl]-amine] | > 75
11 | c1cc2c(c(CN3Cc4ncnc(Nc5cnc6ccccc6c5)c4C3)c1)OCC2 [Compound 101, [6-(2,3-Dihydro-benzofuran-7-ylmethyl)-6,7-dihydro-5H-pyrrolo[3,4-d]pyrimidin-4-yl]-quinolin-3-yl-amine] | > 75
12 | CC(C1CCCCC1)N1Cc2ncnc(Nc3cnc4ccccc4c3)c2C1 (centres unmarked) [Compound 38, [6-(1-Cyclohexyl-ethyl)-6,7-dihydro-5H-pyrrolo[3,4-d]pyrimidin-4-yl]-quinolin-3-yl-amine] | > 75
13 | Cc1cnccc1CN1Cc2ncnc(Nc3cnc4ccccc4c3)c2C1 [Compound 78, [6-(3-Methyl-pyridin-4-ylmethyl)-6,7-dihydro-5H-pyrrolo[3,4-d]pyrimidin-4-yl]-quinolin-3-yl-amine] | > 75
14 | CC(C)(C)CCN1Cc2ncnc(Nc3cnc4ccccc4c3)c2C1 [Compound 15, [6-(3,3-Dimethyl-butyl)-6,7-dihydro-5H-pyrrolo[3,4-d]pyrimidin-4-yl]-quinolin-3-yl-amine] | > 25
15 | Cc1occc1CN1Cc2ncnc(Nc3cnc4ccccc4c3)c2C1 [Compound 96, [6-(2-Methyl-furan-3-ylmethyl)-6,7-dihydro-5H-pyrrolo[3,4-d]pyrimidin-4-yl]-quinolin-3-yl-amine] | > 50
16 | CCCCN1Cc2ncnc(Nc3cnc4ccccc4c3)c2C1 [Compound 6, (6-Butyl-6,7-dihydro-5H-pyrrolo[3,4-d]pyrimidin-4-yl)-quinolin-3-yl-amine] | > 25
17 | CCCN1Cc2ncnc(Nc3cnc4ccccc4c3)c2C1 [Compound 4, (6-Propyl-6,7-dihydro-5H-pyrrolo[3,4-d]pyrimidin-4-yl)-quinolin-3-yl-amine] | < 25
18 | CCC(CC)CN1Cc2ncnc(Nc3cnc4ccccc4c3)c2C1 [Compound 14, [6-(2-Ethyl-butyl)-6,7-dihydro-5H-pyrrolo[3,4-d]pyrimidin-4-yl]-quinolin-3-yl-amine] | > 75
19 | c1ccc2ncc(Nc3ncnc4c3CN(C3COC3)C4)cc2c1 [Compound 44, (6-Oxetan-3-yl-6,7-dihydro-5H-pyrrolo[3,4-d]pyrimidin-4-yl)-quinolin-3-yl-amine] | < 25
20 | CCCOc1ccccc1CN1Cc2ncnc(Nc3cnc4ccccc4c3)c2C1 [Compound 108, [6-(2-Propoxy-benzyl)-6,7-dihydro-5H-pyrrolo[3,4-d]pyrimidin-4-yl]-quinolin-3-yl-amine] | > 50
21 | CSc1ccccc1CN1Cc2ncnc(Nc3cnc4ccccc4c3)c2C1 [Compound 102, [6-(2-Methylsulfanyl-benzyl)-6,7-dihydro-5H-pyrrolo[3,4-d]pyrimidin-4-yl]-quinolin-3-yl-amine] | > 75
22 | Cc1c(CN2Cc3ncnc(Nc4cnc5ccccc5c4)c3C2)cnn1C [Compound 26, [6-(1,5-Dimethyl-1H-pyrazol-4-ylmethyl)-6,7-dihydro-5H-pyrrolo[3,4-d]pyrimidin-4-yl]-quinolin-3-yl-amine] | > 25
23 | c1cc(CN2Cc3ncnc(Nc4cnc5ccccc5c4)c3C2)c2c(c1)OCO2 [Compound 103, (6-Benzo[1,3]dioxol-4-ylmethyl-6,7-dihydro-5H-pyrrolo[3,4-d]pyrimidin-4-yl)-quinolin-3-yl-amine] | > 75
24 | O=C(CN1CCCCC1)N1Cc2ncnc(Nc3cnc4ccccc4c3)c2C1 [Compound 53, 2-Piperidin-1-yl-1-[4-(quinolin-3-ylamino)-5,7-dihydro-pyrrolo[3,4-d]pyrimidin-6-yl]-ethanone] | < 25
25 | Cc1ccccc1CN1Cc2ncnc(Nc3cnc4ccccc4c3)c2C1 [Compound 92, [6-(2-Methyl-benzyl)-6,7-dihydro-5H-pyrrolo[3,4-d]pyrimidin-4-yl]-quinolin-3-yl-amine] | > 75
26 | Cc1csc(CN2Cc3ncnc(Nc4cnc5ccccc5c4)c3C2)n1 [Compound 77, [6-(4-Methyl-thiazol-2-ylmethyl)-6,7-dihydro-5H-pyrrolo[3,4-d]pyrimidin-4-yl]-quinolin-3-yl-amine] | > 50
27 | COc1cccc(CN2Cc3ncnc(Nc4cnc5ccccc5c4)c3C2)c1 [Compound 106, [6-(3-Methoxy-benzyl)-6,7-dihydro-5H-pyrrolo[3,4-d]pyrimidin-4-yl]-quinolin-3-yl-amine] | > 75
28 | Cc1nc(C)c(C(=O)N2Cc3ncnc(Nc4cnc5ccccc5c4)c3C2)s1 [Compound 49, (2,4-Dimethyl-thiazol-5-yl)-[4-(quinolin-3-ylamino)-5,7-dihydro-pyrrolo[3,4-d]pyrimidin-6-yl]-methanone] | > 50
29 | Cn1nccc1S(=O)(=O)N1Cc2ncnc(Nc3cnc4ccccc4c3)c2C1 [Compound 60, [6-(2-Methyl-2H-pyrazole-3-sulfonyl)-6,7-dihydro-5H-pyrrolo[3,4-d]pyrimidin-4-yl]-quinolin-3-yl-amine] | > 50
